Marks after values point to notes of the source that are not given here.
Legend:
[1] = test system: arthritic rats (collagen-induced arthritis model); test: Mechanical hyperalgesia (PAM) in CIA rats; format: in vivo, rat; details: 15 mg/kg, mean ± SEM
Procedure: Male Lewis rats were immunised by intradermal injection at the base of the tail with an emulsion containing 150 μg of bovine collagen type II (bCII) in complete Freund’s adjuvant (CFA) or received an injection with incomplete Freund’s adjuvant (sham group). Three weeks after the first immunisation, animals were boosted with the same procedure. Three days after booster injection, arthritis had developed in all animals but the sham group. Oedema was assessed via plethysmometer (Ugo Basile, Varese, Italy), and the animals were then randomised to treatment groups. Oedema measurement was performed again after 7 and 14 days of treatment. Animals were blindly scored by two different investigators for clinical signs of arthritis (redness, swelling, pain of hind limb joints) as follows: 0 = normal; 1 = mild but definite redness and swelling of the ankle or wrist or individual digits, regardless of the number of affected digits; 2 = moderate redness and swelling of ankle or wrist; 3 = severe redness and swelling of the entire paw including digits; and 4 = maximally inflamed limb with involvement of multiple joints. The mean of the scores assigned by the investigators was calculated.
In the comparative experiment vs rofecoxib, mechanical hyperalgesia was assessed at the end of treatment by using a digital pressure application measurement (PAM) device (Ugo Basile). Increasing pressure was applied to the lateral side of the knee until the animal attempted to escape or vocalised. The force required to elicit this response was measured in grams (gram-force). An optimal stimulus increase rate of 100 g/second was used, and mechanical thresholds were reached after approximately 10 seconds. This increase was visualised with a rate meter on the built-in display, so the pressure applied was visually controlled. At the end of the experiment, animals were killed, and their hind paws were explanted and processed for histology.

[2] = target: PPARγ (Homo sapiens, UniProt P37231); test: Nuclear receptor PPARγ binding; details: [^3H]rosiglitazone, Human recombinant E.Coli, read-out: CR6086 Activity at 10µM
PPARγ, sequence (P37231 whole entry): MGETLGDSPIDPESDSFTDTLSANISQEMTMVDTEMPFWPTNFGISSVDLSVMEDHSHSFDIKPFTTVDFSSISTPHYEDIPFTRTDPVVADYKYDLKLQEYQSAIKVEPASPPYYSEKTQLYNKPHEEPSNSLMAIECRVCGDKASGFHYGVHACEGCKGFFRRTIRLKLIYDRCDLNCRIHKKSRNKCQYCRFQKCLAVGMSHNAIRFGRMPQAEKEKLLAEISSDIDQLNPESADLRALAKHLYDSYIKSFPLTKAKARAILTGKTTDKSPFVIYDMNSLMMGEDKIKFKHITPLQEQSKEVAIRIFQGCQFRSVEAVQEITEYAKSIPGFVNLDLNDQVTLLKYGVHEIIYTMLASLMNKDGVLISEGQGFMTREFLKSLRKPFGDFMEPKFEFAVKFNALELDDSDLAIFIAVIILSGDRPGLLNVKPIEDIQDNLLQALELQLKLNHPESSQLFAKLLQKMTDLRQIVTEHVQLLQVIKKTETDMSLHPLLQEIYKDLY

[3] = target: rat EP4 receptor (Rattus norvegicus, UniProt P43114); test: EP4 receptor occupancy estimation from plasma exposure; details: 3 mg/kg; repeated doses
rat EP4 receptor, sequence (P43114 whole entry): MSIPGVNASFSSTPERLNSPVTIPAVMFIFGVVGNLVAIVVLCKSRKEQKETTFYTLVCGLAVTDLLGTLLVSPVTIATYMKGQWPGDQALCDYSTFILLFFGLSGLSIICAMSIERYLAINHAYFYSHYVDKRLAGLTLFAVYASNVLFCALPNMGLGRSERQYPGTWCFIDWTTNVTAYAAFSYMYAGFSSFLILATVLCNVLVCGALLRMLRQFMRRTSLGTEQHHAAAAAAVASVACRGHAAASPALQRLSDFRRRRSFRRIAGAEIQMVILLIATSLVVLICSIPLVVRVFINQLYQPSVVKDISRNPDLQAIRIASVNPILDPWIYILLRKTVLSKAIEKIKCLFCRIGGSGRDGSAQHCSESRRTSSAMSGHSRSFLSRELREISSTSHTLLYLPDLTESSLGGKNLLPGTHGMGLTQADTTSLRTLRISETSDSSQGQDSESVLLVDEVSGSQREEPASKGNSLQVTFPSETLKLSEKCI
Procedure: CR6086 concentrations in rat plasma were determined by high-performance liquid chromatography (Agilent 1200 series; Agilent Technologies, Santa Clara, CA, USA) coupled with a triple-quadrupole mass spectrometer (API 4000 QTRAP; SCIEX, Concord, ON, Canada). A ZORBAX SB-C18 2.0 × 50-mm, 3.5-μm column (Agilent Technologies) in isocratic conditions was used with mobile phase 0.1% formic acid in water/acetonitrile (68:32 vol/vol). The method was linear within the dynamic range 1.0–10,000 ng/ml (lower to upper limit of quantification). CR6086 plasma protein binding was determined in the 0.2–200 μM concentration range using [^14C]CR6086 and equilibrium dialysis. EP4 receptor occupancy (RO) was calculated on the basis of CR6086 concentrations according to the following formula: RO%=Cave/Cave+Ki×100,
An estimation of the receptor occupancy was attempted in the dose range investigated in CIA rats. Because the CIA experiments were conducted after repeated doses, whereas the exposure shown above was determined after a single dose of CR6086, receptor occupancy estimation in the CIA rats took into consideration the accumulation ratio of CR6086 after repeated doses averaging 1.19 in male rats. […] Thus, in our experiments, clinically relevant effects in the CIA rat model were observed starting from approximately 50% EP4 receptor occupancy. […]

O=C([O-])c1ccc(C2(NC(=O)[C@H]3CC4(CCN3Cc3ccc(C(F)(F)F)cc3)CC4)CC2)cc1.[Na+] [CR6086, Sodium (R)-4-(1-(6-(4-(trifluoromethyl)benzyl)-6-azaspiro[2.5]octane-5-carboxamido)cyclopropyl)benzoate]
Mechanical hyperalgesia, Day 0 ([1]; Day 0): 850.45 ± 59.57^a gram-force | Mechanical hyperalgesia, Day 7 ([1]; Day 7): 846.33 ± 43.60^b,c gram-force | Mechanical hyperalgesia, Day 14 ([1]; Day 14): 1023.09 ± 53.97^d gram-force | inhibition at 10 µM [2]: < 20% | estimated EP4 receptor occupancy [3]: approximately 50%
